Measurements taken from patent publication US8440800B2, “Compositions for reducing cell adhesion to bubbles” (The Ohio State University Research Foundation, priority 2006, dated 2013).
Read-outs that look alike come from different tables or passages of the source. Each block holds one compound with its values, some of them ahead of it.

Key:
[1] = CMC and static surface tension, maximum bubble pressure method; type: physicochemical; conditions: for CMC: 37° C., CD CHO-A medium; for CMC SURFACE TENSION: cell culture medium at 37° C.
Description: (§1) The CMC depends on temperature and solution components. Given the significant number of components in typical cell culture media, the CMC of the comparative materials and the protective compositions were determined at 37° C. and in CD CHO-A medium using a SensaDyne bubble tensiometer PC500L (Chem-Dyne Research Corporation, Mesa, Ariz.), which uses the maximum bubble pressure method. The time between initial bubble formation and attainment of maximum bubble pressure, “surface age”, can be varied by changing the gas flow rate. When the static surface tensions were measured, the surface age were adjusted to approximate 1 s, which was enough for small molecule surfactants to migrate to the bubble surface and potentially reach equilibrium. When the dynamic surface tensions were measured, the surface age was varied in the range of about 0.1 to about 3.0 seconds.

[2] = tested on: Chinese Hamster Ovary cells (CHO) cell line K1; test: Fluorescent cytotoxicity screening, 96-well plates, calcein AM; type: cell-based
Description: (§2) Chinese Hamster Ovary cells (CHO) cell line K1 (ATCC CCL-61) were used. The cells were initially cultured in Ham F-12 culture medium supplemented with 10% v/v fetal bovine serum (Sigma Aldrich Co., St. Louis, Mo.) in T-75 flasks. Then the cells were gradually adapted to chemically-defined medium (CD CHO-A, Invitrogen, Carlsbad, Calif.), which contain no PF-68. The cells were subcultured every 3-4 days and maintained at 37° C. incubator with 5% CO2. All the cultures were anchorage-dependent.
The materials were compared at the same concentration relative to the specific surfactants critical micelle concentration, CMC, i.e., 0.01 CMC or 0.1 CMC. In order to minimize the effect of potential adsorption during filter sterilization, the concentrated material solutions were applied, and then diluted to desired concentration at time of use.
Black, clear-bottom 96-well plates (Fisher Scientific, Hampton, N.H.) were used in the screening experiments. In each well, 150 μl cell suspensions with a total cell number of approximately 10^4 were inoculated along with the test materials and subsequently cultured in a 37° C. incubator with 5% CO2. After 48 hours, the supernatant was carefully removed while the attached CHO cells remained at the bottom of the well. 100 μl of 4 μM calcein AM solution (Invitrogen, Carlsbad, Calif.), a fluorescence probe, was added to each well and incubated for one hour at 37° C. in order to quickly assess cell growth (Yang et al., 2002). Calcein AM is an esterase substrate which can be converted into a polar, fluorescent product by an intracellular enzyme. The fluorescence density was read by a Cytofluor 4000 (Applied Biosystems, Foster City, Calif.). Six replications were performed for each condition (type of material and concentration) and the positions on the 96 well plates were randomized. A reasonable linear relationship between cell number (less than 5×10^5 per well) and fluorescence density was confirmed before screening experiments; however, a control was created with each specific experiment.

[3] = tested on: Chinese Hamster Ovary cells (CHO) cell line K1; test: Cytotoxicity studies in T25 flasks (cell growth); type: cell-based; conditions: T-25 flasks, 48 hours; concentrations of FIG. 6
Description: as §2
Various candidate materials from the 96 well plate assays were further investigated using T25 flasks. The concentration of the candidate materials were tested at discrete concentration, which depended on the specific material, but at the highest concentration exceeded 0.1 CMC. In all cases, tested, a concentration at which cell growth began to be inhibited was detected.
Additional protective compositions, Nonyl maltopyranoside (NM) and CYMAL®-4 (CM4), were purchased from Anatace Inc. (Maumee, Ohio). The inoculation was 3.0×10^5 cells/ml. After 48 hours, the cells were harvested by Accutase® (Innovative Cell Technologies Inc., San Diego, Calif.) and counted by a hemocytometer. Besides cell growth, the morphology of cells was also monitored by an inverted microscope (Nikon Ecllipse TE2000-U, Melville, N.Y.).

[4] = tested on: CHO K1 cells; test: Bubble-cell interactions, cell enrichment factor in foam (bubble collector, LDH); type: cell-based, Chinese Hamster
Description: An improved bubble collector device described by Ma et al. (2004) was used to quantitatively study cell entrapment in the foam. Specifically, this device can isolate bubble rupture events from foam formation vessel as well as maintain a plug-flow of bubbles from the foam layer into the bubble collection tube.
The cell concentration was determined using the lactate dehydrogenase (LDH) assay (CytoTox 96, Promega, Madison, Wis.). 9% (w/v) Triton X-100 solution was added to the cell suspension to be evaluated at a ratio of 1 to 10, and subsequently incubated at 37° C. for 45 minutes in order to lyse all the cells. A standard curve between LDH absorption and cell concentration by hemocytometer measurement was made for each set of experiments. The foam liquid volume was also measured by weighing the collect tube before and after experiments, assuming a liquid density of 1.0 g/ml.
For the bubble column studies, CHO K1 cells, grown in CD-CHO medium, were harvested during exponential phase of growth in spinner flasks. […]
Two spargers, a 22 gauge needle and a sintered glass (ACE glass, Vineland, N.J.) provided bubbles which produced, as expected, two different bubble sizes. The bubbles sizes were determined using a SCIMAX CCD digital camera (MVIA, Monaca, Pa.) and an infinity lens (ISCO Precision Optics GMBH, Germany) in a glass square column. […]

[5] = Dynamic surface tension in cell culture medium; type: physicochemical; conditions: 0.28 g/L
Description: as §1

[6] = Bubble size for two spargers (CCD camera); type: physicochemical
Description: Two spargers, a 22 gauge needle and a sintered glass (ACE glass, Vineland, N.J.) provided bubbles which produced, as expected, two different bubble sizes. The bubbles sizes were determined using a SCIMAX CCD digital camera (MVIA, Monaca, Pa.) and an infinity lens (ISCO Precision Optics GMBH, Germany) in a glass square column. The cell enrichment factor can be defined as the ratio of total LDH concentration in the foam liquid to that in the bulk liquid after lysing all the cells.
Consistent with the techniques used by Ma et al. (2004), the effectiveness of the protective compositions with respect to cell-bubble interactions was evaluated using the bubble collection device. Prior to the studies with cells, the size of the bubbles generated using a sintered glass sparger and a 22 gauge needle and two different concentrations of the PF-68® comparative material and the protective composition NM were determined.

[7] = tested on: red blood cells; conditions: cited from earlier work

SMILES: OC[C@H]1O[C@H](O[C@H]2[C@H](O)[C@@H](O)[C@H](OCCCCC3CCCCC3)O[C@@H]2CO)[C@H](O)[C@@H](O)[C@@H]1O [CM4, 4-Cyclohexyl-1-butyl-β-D-maltoside]
CMC [1]: 7.6 mM

SMILES: CCCCCCCCCCCCCCCC[N+](C)(C)C.[Br-] [CTAB, Hexadecyltrimethyl ammonium bromide]
Cytotoxicity (inhibition of cell growth, fluorescence intensity) [2]: most toxic to cells | Microscopic observation of cells [2]: completely lysed the cells | CMC [1]: 1.3 mM

SMILES: CCCCCCCCCCCC[N+](C)(C)[O-] [DDAO, N,N-Dimethyldodecyl amine N-oxide]
CMC [1]: 2.0 mM

SMILES: CCCCCCCCCC[N+](C)(C)[O-] [DDeAO, N,N-Dimethyldecyl amine N-oxide]
CMC [1]: 6.4 mM

SMILES: CCCCCCCCCCCC[N+](C)(C)C.[Br-] [DTAB, Dodecyltrimethyl ammonium bromide]
Cytotoxicity (inhibition of cell growth, fluorescence intensity) ([2]; 0.01 CMC and 0.1 CMC, 48 hours): most toxic to cells | Microscopic observation of cells ([2]; at the lowest concentration): completely lysed the cells | CMC [1]: 7.0 mM

SMILES: CCCCCCCCCCCCOS(=O)(=O)[O-].[Na+] [SDS, Sodium dodecyl sulfate]
Cytotoxicity (inhibition of cell growth, fluorescence intensity) ([2]; 0.01 CMC and 0.1 CMC, 48 hours): inhibitory | CMC [1]: 2.3 mM

Now from value to compound, other results behind:

HEAD GROUP SIZE [1]: 32 Å^2 | CMC [1]: 2.3 mM | CMC SURFACE TENSION [1]: 31.5 DYN/CM
SMILES: CCCCCCCCCCO[C@@H]1O[C@H](CO)[C@@H](O)[C@H](O)[C@H]1O [DG, n-Decyl-β-D-glucopyranoside]
Toxicity relative to maltose head group analogue of same alkyl chain length [2]: more toxic

Time to achieve equilibrium surface tension [5]: approximately 0.5 second | HEAD GROUP SIZE [1]: 42 Å^2 | CMC [1]: 1.8 mM | CMC SURFACE TENSION [1]: 38.9 DYN/CM
SMILES: CCCCCCCCCCO[C@@H]1O[C@H](CO)[C@@H](O[C@H]2O[C@H](CO)[C@@H](O)[C@H](O)[C@H]2O)[C@H](O)[C@H]1O [DM, n-Decyl-β-D-maltopyranoside]
Maximum concentration before inhibitory effects on cell growth was observed [3]: 0.28 g/L | Effect on decrease of the enrichment factor ([4]; 0.28 g/L): less than PF-68® comparative material and the protective composition NM

HEAD GROUP SIZE [1]: 59 Å^2 | CMC [1]: 6 mM | CMC SURFACE TENSION [1]: 40.1 DYN/CM | Median Diameter of bubbles ([6]; 22 gauge needle (large bubble), 0.6 g/L): 2.7 mm | Median Diameter of bubbles ([6]; 22 gauge needle (large bubble), 1.0 g/L): 2.5 mm | Median Diameter of bubbles ([6]; sintered glass sparger (microbubble), 0.6 g/L): 159 μm | Median Diameter of bubbles ([6]; sintered glass sparger (microbubble), 1.0 g/L): 157 μm
SMILES: CCCCCCCCCO[C@@H]1O[C@H](CO)[C@@H](O[C@H]2O[C@H](CO)[C@@H](O)[C@H](O)[C@H]2O)[C@H](O)[C@H]1O [NM, n-Nonyl-β-D-maltopyranoside]
Maximum concentration before inhibitory effects on cell growth was observed [3]: 1.0 g/L | Effect on cell enrichment factor ([4]; 1.0 g/L): slightly decreases the enrichments factor further

HEAD GROUP SIZE [1]: 40 Å^2 | CMC [1]: 27.1 mM | CMC SURFACE TENSION [1]: 32.5 DYN/CM
SMILES: CCCCCCCCO[C@@H]1O[C@H](CO)[C@@H](O)[C@H](O)[C@H]1O [OG, n-Octyl-β-D-glucopyranoside]
Toxicity relative to maltose head group analogue of same alkyl chain length [2]: more toxic

HEAD GROUP SIZE [1]: 61 Å^2 | CMC [1]: 24.5 mM | CMC SURFACE TENSION [1]: 41.5 DYN/CM
SMILES: CCCCCCCCO[C@@H]1O[C@H](CO)[C@@H](O[C@H]2O[C@H](CO)[C@@H](O)[C@H](O)[C@H]2O)[C@H](O)[C@H]1O [OM, n-Octyl-β-D-maltopyranoside]
Maximum concentration before inhibitory effects on cell growth was observed [3]: 3.5 g/L | Toxicity to red blood cells [7]: less toxic to red blood cells than the OG comparative material

CMC [1]: 11.0 mM
SMILES: CCCCCCCCS[C@@H]1O[C@H](CO)[C@@H](O)[C@H](O)[C@H]1O [OT, n-Octyl-β-D-thioglucopyranoside]

CMC [1]: 12.2 mM
SMILES: CCCCCCCCCCOS(=O)(=O)[O-].[Na+] [SDeS, Sodium decyl sulfate]

CMC [1]: 85.6 mM
SMILES: CCCCCCCCOS(=O)(=O)[O-].[Na+] [SOS, Sodium octyl sulfate]
